{"source": "patent US20120309622A1", "about": "“HERBICIDES CONTAINING SUBSTITUTED THIEN-3-YL-SULPHONYLAMINIO(THIO)CARBONYL-TRIAZOLIN(ETHI)ONES” (BAYER INTELLECTUAL PROPERTY GMBH, priority 2001, published 2012)", "experiment_in_all_cases": "Post-emergence test/greenhouse, % damage after three weeks", "assay_type_in_all_cases": "in vivo", "key": {"Bromus secalinus": {"system": "Bromus secalinus", "procedure": "(§1) The expected action for a given combination of two herbicides can be calculated as follows (cf. COLBY, S. R.: “Calculating synergistic and antagonistic responses of herbicide combinations”, Weeds 15, pages 20-22, 1967):\n(§2) If the actual damage exceeds the calculated value, the combination has a superadditive effect, that is to say a synergistic effect.\n(§3) Test plants are grown under control conditions (temperature and light).\n(§4) Following the spray application, the plant containers are kept in the greenhouse under constant light and temperature conditions.\n(§5) After three weeks, the degree of damage to the plants is rated in % damage in comparison to the development of the untreated control."}, "Lolium perenne": {"system": "Lolium perenne"}, "Alopecurus myosuroides": {"system": "Alopecurus myosuroides", "excerpt": "as §1\n(§6) If • X=% damage by herbicide A (active compound of the formula I) at an application rate of p kg/ha and • Y=% damage by herbicide B (active compound of the formula II) at an application rate of q kg/ha and • E=the expected damage of herbicides A+B at an application rate of p+q kg/ha, then\nas §2\n(§7) Test plants are grown under control conditions (temperature and light). Once the plants have reached a height of 5 to 15 cm, the test compound or the combination of test compounds is applied by spraying such that the particular amounts of active compound desired are applied per unit area. The concentration of the spray liquor is chosen so that the particular amounts of active compound desired are applied in 500 litres of water/ha.\nas §4, §5\n(§8) The figures denote: • 0%=no effect (like untreated control) • 100%=total destruction"}, "Veronica persicaria": {"system": "Veronica persicaria", "procedure": "as §1, §2, §3, §4, §5"}, "Avena fatua": {"system": "Avena fatua", "excerpt": "as §1, §6, §2, §7, §4, §5, §8"}, "Matricaria inodora": {"system": "Matricaria inodora", "details": "30 g of ai/ha", "excerpt": "as §1, §6, §2, §7, §4, §5, §8"}, "Eriochloa villosa": {"system": "Eriochloa villosa"}, "Setaria viridis": {"system": "Setaria viridis", "excerpt": "as §1, §6, §2, §7, §4, §5, §8"}, "Digitaria sanguinalis": {"system": "Digitaria sanguinalis", "excerpt": "as §1, §6, §2, §7, §4, §5, §8"}, "Cassia tora": {"system": "Cassia tora", "details": "4 g of ai/ha", "procedure": "as §1, §2, §3, §4, §5"}, "Cyperus esculentus": {"system": "Cyperus esculentus", "excerpt": "as §1, §6, §2, §7, §4, §5, §8"}, "[1]": {"details": "Bromus secalinus, post-emergence, 504 h, read-out: Bromus secalinus observed"}, "[2]": {"details": "Bromus secalinus, post-emergence, 504 h, 4 g of ai/ha, read-out: Bromus secalinus observed"}}, "note": "Where two headings read alike, the source gives them in different places."}
{"molecule": "sulcotrione", "values": [{"measurement": "Bromus secalinus observed", "setting": "Bromus secalinus; 60 g of ai/ha", "result": 0, "unit": "%"}, {"measurement": "Bromus secalinus observed", "setting": "Bromus secalinus; 120 g of ai/ha", "result": 30, "unit": "%"}]}
{"molecule": "CCOC(=O)COc1cc(-c2nn(C)c(OC(F)F)c2Cl)c(F)cc1Cl", "note": "[pyraflufen-ethyl]", "values": [{"measurement": "pest or weed control at 2 g/ha", "setting": "Bromus secalinus; [1]", "result": 30, "unit": "%"}, {"measurement": "pest or weed control at 4 g/ha", "setting": "Bromus secalinus; [1]", "result": 30, "unit": "%"}, {"measurement": "Lolium perenne observed", "setting": "Lolium perenne; 2 g of ai/ha", "result": 0, "unit": "%"}, {"measurement": "Lolium perenne observed", "setting": "Lolium perenne; 4 g of ai/ha", "result": 30, "unit": "%"}]}
{"molecule": "C[S+](C)C.O=C([O-])CNCP(=O)(O)O", "note": "[sulfosate]", "values": [{"measurement": "Lolium perenne observed", "setting": "Lolium perenne; 250 g of ai/ha", "result": 70, "unit": "%"}, {"measurement": "Alopecurus myosuroides observed", "setting": "Alopecurus myosuroides; 250 g of ai/ha", "result": 30, "unit": "%"}]}
{"molecule": "CC(Cl)CC(=O)Nc1c([N+](=O)[O-])cnn1-c1c(Cl)cc(C(F)F)cc1Cl", "note": "(centres unmarked) [SLA 5599]", "values": [{"measurement": "Veronica persicaria observed", "setting": "Veronica persicaria; 30 g of ai/ha", "result": 80, "unit": "%"}, {"measurement": "Lolium perenne observed", "setting": "Lolium perenne; 30 g of ai/ha", "result": 0, "unit": "%"}, {"measurement": "Lolium perenne observed", "setting": "Lolium perenne; 60 g of ai/ha", "result": 30, "unit": "%"}, {"measurement": "Avena fatua observed", "setting": "Avena fatua; 30 g of ai/ha", "result": 0, "unit": "%"}, {"measurement": "Avena fatua observed", "setting": "Avena fatua; 60 g of ai/ha", "result": 0, "unit": "%"}]}
{"molecule": "CNC1=C(c2cccc(C(F)(F)F)c2)C(=O)C(c2ccccc2)O1", "note": "(centres unmarked) [flurtamone]", "values": [{"measurement": "pest or weed control at 60 g/ha", "setting": "Bromus secalinus; [1]", "result": 30, "unit": "%"}, {"measurement": "Matricaria inodora observed", "setting": "Matricaria inodora", "result": 30, "unit": "%"}]}
{"molecule": "O=C(Nc1ccc(F)cc1F)c1cccnc1Oc1cccc(C(F)(F)F)c1", "note": "[diflufenican, N-(2,4-di-fluorophenyl)-2-(3-trifluoromethylphenoxy)pyridine-3-carboxamide, reference compound]", "values": [{"measurement": "pest or weed control at 30 g/ha", "setting": "Bromus secalinus; Bromus secalinus, post-emergence, 504 h, 30 g of ai/ha, read-out: Bromus secalinus observed", "result": 10, "unit": "%"}, {"measurement": "Avena fatua observed", "setting": "Avena fatua; 125 g of ai/ha", "result": 50, "unit": "%"}, {"measurement": "Alopecurus myosuroides observed", "setting": "Alopecurus myosuroides; 30 g of ai/ha", "result": 50, "unit": "%"}, {"measurement": "Alopecurus myosuroides observed", "setting": "Alopecurus myosuroides; 60 g of ai/ha", "result": 50, "unit": "%"}, {"measurement": "Alopecurus myosuroides observed", "setting": "Alopecurus myosuroides; 125 g of ai/ha", "result": 70, "unit": "%"}]}
{"molecule": "COc1cc(OC)nc(NC(=O)NS(=O)(=O)c2ncccc2C(=O)N(C)C)n1", "note": "[nicosulfuron]", "values": [{"measurement": "Eriochloa villosa observed", "setting": "Eriochloa villosa; 30 g of ai/ha", "result": 90, "unit": "%"}]}
{"molecule": "CCS(=O)(=O)Nc1cc(-n2nc(C(F)(F)F)n(C)c2=O)c(F)cc1C(N)=S", "note": "[HWH 4991]", "values": [{"measurement": "Veronica persicaria observed", "setting": "Veronica persicaria; 30 g of ai/ha", "result": 90, "unit": "%"}, {"measurement": "Bromus secalinus observed", "setting": "Bromus secalinus; 30 g of ai/ha", "result": 20, "unit": "%"}, {"measurement": "Bromus secalinus observed", "setting": "Bromus secalinus; 60 g of ai/ha", "result": 30, "unit": "%"}, {"measurement": "Lolium perenne observed", "setting": "Lolium perenne; 30 g of ai/ha", "result": 20, "unit": "%"}, {"measurement": "Lolium perenne observed", "setting": "Lolium perenne; 60 g of ai/ha", "result": 60, "unit": "%"}]}
{"molecule": "glyphosate", "values": [{"measurement": "Veronica persicaria observed", "setting": "Veronica persicaria; 250 g of ai/ha", "result": 50, "unit": "%"}, {"measurement": "Bromus secalinus observed", "setting": "Bromus secalinus; 125 g of ai/ha", "result": 20, "unit": "%"}, {"measurement": "Bromus secalinus observed", "setting": "Bromus secalinus; 250 g of ai/ha", "result": 80, "unit": "%"}, {"measurement": "Eriochloa villosa observed", "setting": "Eriochloa villosa; 250 g of ai/ha", "result": 70, "unit": "%"}]}
{"molecule": "iodosulfuron", "values": [{"measurement": "Veronica persicaria observed", "setting": "Veronica persicaria; 2 g of ai/ha", "result": 90, "unit": "%"}, {"measurement": "Bromus secalinus observed", "setting": "Bromus secalinus; 2 g of ai/ha", "result": 0, "unit": "%"}, {"measurement": "Bromus secalinus observed", "setting": "Bromus secalinus; 4 g of ai/ha", "result": 0, "unit": "%"}, {"measurement": "Setaria viridis observed", "setting": "Setaria viridis; 2 g of ai/ha", "result": 0, "unit": "%"}, {"measurement": "Setaria viridis observed", "setting": "Setaria viridis; 4 g of ai/ha", "result": 0, "unit": "%"}]}
{"molecule": "COc1nc(NC(=O)NS(=O)(=O)c2ccccc2C(F)(F)F)nc(C(F)(F)F)n1", "note": "[tritosulfuron]", "values": [{"measurement": "Lolium perenne observed", "setting": "Lolium perenne; 15 g of ai/ha", "result": 0, "unit": "%"}, {"measurement": "Lolium perenne observed", "setting": "Lolium perenne; 30 g of ai/ha", "result": 0, "unit": "%"}, {"measurement": "Digitaria sanguinalis observed", "setting": "Digitaria sanguinalis; 15 g of ai/ha", "result": 30, "unit": "%"}, {"measurement": "Digitaria sanguinalis observed", "setting": "Digitaria sanguinalis; 30 g of ai/ha", "result": 40, "unit": "%"}, {"measurement": "Setaria viridis observed", "setting": "Setaria viridis; 30 g of ai/ha", "result": 0, "unit": "%"}]}
{"molecule": "COc1ncc(F)c2nc(S(=O)(=O)Nc3c(F)cccc3F)nn12", "note": "[florasulam]", "values": [{"measurement": "Veronica persicaria observed", "setting": "Veronica persicaria; 4 g of ai/ha", "result": 70, "unit": "%"}, {"measurement": "Bromus secalinus observed", "setting": "Bromus secalinus; 2 g of ai/ha", "result": 30, "unit": "%"}, {"measurement": "Bromus secalinus observed", "setting": "Bromus secalinus; 4 g of ai/ha", "result": 30, "unit": "%"}, {"measurement": "Cassia tora observed", "setting": "Cassia tora", "result": 0, "unit": "%"}]}
{"molecule": "COC(=O)c1ccccc1S(=O)(=O)NC(=O)N(C)c1nc(C)nc(OC)n1", "note": "[tribenuron-methyl]", "values": [{"measurement": "Veronica persicaria observed", "setting": "Veronica persicaria; 4 g of ai/ha", "result": 90, "unit": "%"}, {"measurement": "pest or weed control at 4 g/ha", "setting": "Bromus secalinus; [2]", "result": 0, "unit": "%"}, {"measurement": "pest or weed control at 8 g/ha", "setting": "Bromus secalinus; Bromus secalinus, post-emergence, 504 h, 8 g of ai/ha, read-out: Bromus secalinus observed", "result": 0, "unit": "%"}, {"measurement": "Cyperus esculentus observed", "setting": "Cyperus esculentus; 4 g of ai/ha", "result": 0, "unit": "%"}, {"measurement": "Cyperus esculentus observed", "setting": "Cyperus esculentus; 8 g of ai/ha", "result": 0, "unit": "%"}]}
{"molecule": "COc1nc(C)nc(=NC(=O)NS(=O)(=O)c2ccccc2C(=O)O)[nH]1", "note": "[metsulfuron]", "values": [{"measurement": "pest or weed control at 2 g/ha", "setting": "Bromus secalinus; Bromus secalinus, post-emergence, 504 h, 2 g of ai/ha, read-out: Bromus secalinus observed", "result": 0, "unit": "%"}, {"measurement": "pest or weed control at 4 g/ha", "setting": "Bromus secalinus; [2]", "result": 0, "unit": "%"}, {"measurement": "Lolium perenne observed", "setting": "Lolium perenne; 2 g of ai/ha", "result": 70, "unit": "%"}, {"measurement": "Cyperus esculentus observed", "setting": "Cyperus esculentus; 4 g of ai/ha", "result": 30, "unit": "%"}]}
